From PubChem BioAssay (NCI)
Where “and” joins values, the source holds several entries; their conditions need not be identical. Identical values can stand only once.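 These data come from cells grown in 96-well plates and exposed to compound for 48 hours at five concentrations. At the GI50, growth is halved. TGI is the concentration that stops growth completely.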

Each compound was assayed on SF-539 CNS (assay: growth of human tumour cells (NCI), 48 h).

| Compound | TGI | GI50 |
| --- | --- | --- |
| CCOc1ccc(NC(=O)C(=O)CC(=O)c2c[n+](=O)c3cc(C)c(C)cc3n2[O-])cc1 | > 100 µM | – |
| Cn1cc(C2=C(c3cn(C)c4ncccc34)C(=O)NC2=O)c2ccccc21 | 14.3 µM | 5.35 µM |
| O=C1C(Cl)=C(Nc2cccc(Cl)c2)C(=O)N1Cc1ccc(Cl)cc1Cl | 2.92 µM | < 0.0466 µM |
| O=C(/C=C/C12c3ccccc3C(c3ccccc31)C1C(=O)NC(=O)C12)c1ccncc1 (configuration not stated) | 5.72 µM | 2.03 µM |
| CC12CCC(O)CC1CCC1C2CCC2(C)C(C3=CC(=O)OC3)CCC12O (configuration not stated) | 3.2 µM | – |
| COc1ccc2c(c1)/C(=C/c1c(C)nc3sc(C)nn13)C(=O)N2 | > 50.7 µM | 3.29 µM |
| Cc1cc(I)cc(CN(C)CCCCN2CCCCC2)c1O | 25.1 µM | 12 µM |
| Cc1ccc(C(=O)/C(=C/c2ccc([N+](=O)[O-])cc2)SCc2ccc(Cl)cc2)cc1 | 4.49 µM | 2.06 µM |
| O=C(Nc1ccc(Cl)c(Cl)c1)Nc1ccc(Cl)c(Cl)c1 | 8.15 µM and 14.7 µM | 2.63 µM and 3.64 µM |
| C#Cc1ccc(-n2c(/C=C/c3ccc(C(F)(F)F)cc3)nc3ncccc3c2=O)cc1 | 3.17 µM | 1.68 µM |
| COc1cc(/C=N/NC(=O)c2ccc(C(F)(F)F)nc2Nc2ccc(Cl)cc2C)ccc1O | 7.66 µM | 2.12 µM |
| O=C(N/C(=C\c1ccc(/C=C(\NC(=O)c2ccccc2)c2nc3cc([N+](=O)[O-])ccc3[nH]2)cc1)c1nc2cc([N+](=O)[O-])ccc2[nH]1)c1ccccc1 | > 100 µM | – |
| COc1ccc(C(=O)Cn2c(C(=O)c3ccccc3)nc(-c3ccc(OC)cc3)c2-c2ccc(OC)cc2)cc1 | > 100 µM | 31.5 µM |
| O=C1c2ccccc2C2C1N2C(=O)C(F)(F)F (configuration not stated) | > 100 µM | – |
| CCOC(=O)[C@]1(OC(C)=O)C[C@H](OC(C)=O)[C@@H](C(F)COP(=O)(OCc2ccccc2)OCc2ccccc2)O1 (some centres not stated) | > 100 µM | – |
| c1ccc2cc(-c3cc(-c4cc(-c5ccc6ccccc6c5)on4)no3)ccc2c1 | > 100 µM | – |
| CC1(c2ccc(F)cc2)C(C#N)C(=O)NC(=O)C1C#N (configuration not stated) | > 100 µM | – |
| O=C1C2C(C(=O)N1OS(=O)(=O)c1ccccc1)N(Cc1ccccc1)C(=O)N2Cc1ccccc1 (configuration not stated) | > 100 µM | – |
| COc1cc(-c2nn(-c3ccc(NC(=O)c4ccc(Cl)c(C(F)(F)F)c4)cc3)cc2-c2ccncc2)ccc1Cl | 8.6 µM | 1.83 µM |
| CN(C)CC[N+]1=Nc2cccc3cccc(c23)N1 | > 100 µM | – |
| COc1ccc2c(C3=C(c4cn(C)c5ccccc45)C(=O)NC3=O)cn(C)c2c1 | 0.134 µM | 0.0556 µM |
| Cc1ccc(N=Nc2ccc(N(CCC#N)CCC#N)cc2C)c(Br)c1 | > 100 µM | – |
| COc1ccc2c3c1C(=O)CCCC3CO2 (configuration not stated) | > 100 µM | – |

What follows are compounds tested on NCI-H23 lung (assay: growth of human tumour cells (NCI), 48 h).

| Compound | TGI [µM] | GI50 [µM] |
| --- | --- | --- |
| CCCCC(=O)OCC(=O)[C@]1(O)Cc2c(O)c3c(c(O)c2[C@@H](OC2CC(NC(=O)C(F)(F)F)C(O)C(C)O2)C1)C(=O)c1c(OC)cccc1C3=O (some centres not stated) | 1.98 | – |
| C[C@]12CC[C@H](O)CC1=CC[C@@H]1C2CC[C@]2(C)C(=O)N(N)C(=O)CC12 (some centres not stated) | > 100 | – |
| C=C(CN1CCN(c2ccc(Cl)cc2F)CC1)c1ccc(C(=O)Nc2ccccc2N)cc1 | > 100 | 3.13 |
| CC(C)=CC(=O)C1c2cccc(O)c2C(=O)c2c(O)cc(C)cc21 (configuration not stated) | 6.55 | – |
| COC(CN1C(=O)c2cccc3cccc(c23)C1=O)OC | > 100 | – |
| O=C(Nc1ccccc1)NS(=O)(=O)c1ccc(-n2nc3c(c2-c2cccs2)Cc2ccccc2-3)cc1 | 29.6 | 12.2 |
| O=C1C=C(Cl)C(=O)C(c2ccc(Cl)cc2)=C1 | 67.3 | – |
| Cc1ccc2c(=O)cc(-c3ccc(F)cc3)[nH]c2n1 | > 100 | – |
| CCOc1ccc(NC(=O)C(=O)CC(=O)c2c[n+](=O)c3cc(C)c(C)cc3n2[O-])cc1 | > 100 | – |
| Cn1cc(C2=C(c3cn(C)c4ncccc34)C(=O)NC2=O)c2ccccc21 | > 25 | 14.3 |
| O=C1C(Cl)=C(Nc2cccc(Cl)c2)C(=O)N1Cc1ccc(Cl)cc1Cl | 25.6 | 2.14 |
| O=C(/C=C/C12c3ccccc3C(c3ccccc31)C1C(=O)NC(=O)C12)c1ccncc1 (configuration not stated) | 4.45 | 2.09 |
| CC12CCC(O)CC1CCC1C2CCC2(C)C(C3=CC(=O)OC3)CCC12O (configuration not stated) | 4.76 | – |
| COc1ccc2c(c1)/C(=C/c1c(C)nc3sc(C)nn13)C(=O)N2 | > 65.5 | 3.33 |
| Cc1cc(I)cc(CN(C)CCCCN2CCCCC2)c1O | > 100 | 24.7 |
